Data reported in patent US20040170669A1, “Feed rations and methods of feeding growing ruminants” (priority 2002, published 2004).
Marks after values point to notes of the source that are not given here.

Key:
[1] = 0 to 6 month old calves, hay plus compound feed; cited from earlier work
[2] = 112-day feeding trial: growing beef cattle fed bermudagrass hay plus molasses-based supplements with corn gluten meal or Alimet; type: in vivo, Angus-Brahman crossbred cattle; conditions: for Liquid supplement refusal: molasses based supplement remaining from last feeding: one value per feeding date; for BCS change (0-112 days): body condition score; for Added gain: over control; for TDN consumed: total digestible nutrients
Method: An experiment was conducted to study the effect of increasing quantities of methionine from corn gluten meal, an 88% free acid solution of 2-hydroxy-4-(methylthio)butanoic acid sold under the trademark Alimet® (Novus International, Inc., St. Louis, Mo.), on the performance of growing beef cattle fed bermuda grass hay supplemented with molasses-based supplements. The experiment evaluated the effects of adding corn gluten meal or Alimet® to diets of hay supplemented with molasses-based supplements fed to growing beef cattle.
This experiment evaluated corn gluten meal and Alimet® fed to growing beef cattle at four levels to provide 0, 2, 4, and 6 gm/day of added bypass total sulfur amino acids (TSAA) assuming a 40% bypass of Alimet®. An […] treatment was formulated to provide 8 gm/day of added bypass TSAA from Alimet®. Both TSAA sources were provided in a liquid supplement slurry containing 82% fortified molasses (fortified with ‘12% crude protein, minerals, vitamins) and 18% ground corn or corn gluten meal. Corn gluten meal replaced corn in the supplement keeping the proportion of dry ingredients in the supplement similar across TSAA sources and levels. All supplements were offered to growing cattle to provide 3.28 lb/day of total digestible nutrients (TDN). Supplements were formulated to provide adequate nitrogen in the form of rumen degradable intake protein (DIP) with 0.18 lb DIP provided for each pound of TDN. Much of the DIP in supplements was provided by urea.
This experiment was conducted at the Santa Fe Beef Unit located near Gainesville. Thirty-two pens (4 head/pen) of Angus-Brahman crossbred cattle (9-12 months of age) were assigned randomly within sex and breed type. The calves averaged 610 lb and calves were in excellent body condition (BCS 5.8) at the start of the trial. Each pen was assigned two steers and two heifers. These 32 pens were randomly assigned to the 8 treatments. Each pen was a two-acre pasture and most grass was grazed off at the start of the trial but warm weather allowed some grass growth during February and March. Molasses slurries were fed on two days each week (equivalent amount for 3 or 4 days at each feeding) at the equivalent daily rate. Molasses slurries were hand mixed in each pen and fed in open troughs. Alimet® was pre-weighed in the laboratory and mixed in the supplement of the assigned pen at each feeding. Bermuda grass hay was offered ad libitum in hay rings outside (no shelter) and molasses slurries were limit fed during the 112-day trial (December thru April). Hay not consumed was collected, weighed, sampled (dry matter analyzed), and removed from the pens every 6 to 8 weeks during the trial. Water and a mineral-vitamin supplement were offered ad libitum.
Supplement consumption, hay consumption, full weight, shrunk weight (beginning and end only), height, body condition, and blood urea (2 calves/pen) were measured at 28-day intervals during the 112-day trial. Supplement ingredients were sampled twice monthly and each hay bale was weighed and sampled prior to feeding. Supplement ingredients were analyzed for dry matter, organic matter, crude protein, bypass protein, amino acids, and minerals. Hay samples were analyzed for dry matter, organic matter, crude protein, amino acids, in vitro organic matter digestibility, neutral detergent fiber, and minerals.

[3] = 2 gm bypass TSAA/d (Alimet 5.7 g/d)
[4] = 4 gm bypass TSAA/d (Alimet 11.4 g/d)
[5] = 6 gm bypass TSAA/d (Alimet 17 g/d)
[6] = 8 gm bypass TSAA/d (Alimet 22.7 g/d)

CSCCC(O)C(=O)[O-].CSCCC(O)C(=O)[O-].[Ca+2] (centres unmarked) [calcium salt of 2-hydroxy-4-(methylthio)butanoic acid]
Increase of average daily weight gain over control calves [1]: 8-10%

CSCCC(O)C(=O)O (centres unmarked) [Alimet, 2-hydroxy-4-(methylthio)butanoic acid]
Daily gain, 0-28 days (full wt) [2, 3]: 1.58 lb/d
Daily gain, 0-112 days (full wt) [2, 3]: 1.61 lb/d
Daily gain, 1-113 days (shrunk wt) [2, 3]: 1.35^bc lb/d
Daily gain, 28-56 days (full wt) [2, 3]: 1.92 lb/d
Daily gain, 56-84 days (full wt) [2, 3]: 1.09 lb/d
Daily gain, 84-112 days (full wt) [2, 3]: 1.90 lb/d
Feed consumed, Hay [2, 3]: 11.23^b lb/d DM
Feed consumed, Supplement [2, 3]: 4.51^a lb/d DM
Feed consumed, Total [2, 3]: 15.74^b lb/d DM
Feed efficiency, Gain/TDN [2, 3]: .149^acd
Feed efficiency, Gain/feed DM [2, 3]: .087^c
Height change (0-112 days) [2, 3]: 2.73 in.
Daily gain, 0-28 days (full wt) [2, 4]: 1.88 lb/d
Daily gain, 0-112 days (full wt) [2, 4]: 1.53 lb/d
Daily gain, 1-113 days (shrunk wt) [2, 4]: 1.31^ab lb/d
Daily gain, 28-56 days (full wt) [2, 4]: 1.46 lb/d
Daily gain, 56-84 days (full wt) [2, 4]: .99 lb/d
Daily gain, 84-112 days (full wt) [2, 4]: 1.82 lb/d
Feed consumed, Hay [2, 4]: 10.49^b lb/d DM
Feed consumed, Supplement [2, 4]: 4.51^a lb/d DM
Feed consumed, Total [2, 4]: 14.99^b lb/d DM
Feed efficiency, Gain/TDN [2, 4]: .149^acd
Feed efficiency, Gain/feed DM [2, 4]: .088^c
Height change (0-112 days) [2, 4]: 2.45 in.
Daily gain, 0-28 days (full wt) [2, 5]: 1.77 lb/d
Daily gain, 0-112 days (full wt) [2, 5]: 1.69 lb/d
Daily gain, 1-113 days (shrunk wt) [2, 5]: 1.44^bc lb/d
Daily gain, 28-56 days (full wt) [2, 5]: 1.68 lb/d
Daily gain, 56-84 days (full wt) [2, 5]: 1.40 lb/d
Daily gain, 84-112 days (full wt) [2, 5]: 1.98 lb/d
Feed consumed, Hay [2, 5]: 11.04^b lb/d DM
Feed consumed, Supplement [2, 5]: 4.45^a lb/d DM
Feed consumed, Total [2, 5]: 15.49^b lb/d DM
Feed efficiency, Gain/TDN [2, 5]: .159^ad
Feed efficiency, Gain/feed DM [2, 5]: .094^a
Height change (0-112 days) [2, 5]: 2.80 in.
Daily gain, 0-28 days (full wt) [2, 6]: 1.24 lb/d
Daily gain, 0-112 days (full wt) [2, 6]: 1.52 lb/d
Daily gain, 1-113 days (shrunk wt) [2, 6]: 1.31^ab lb/d
Daily gain, 28-56 days (full wt) [2, 6]: 1.49 lb/d
Daily gain, 56-84 days (full wt) [2, 6]: .93 lb/d
Daily gain, 84-112 days (full wt) [2, 6]: 2.48 lb/d
Feed consumed, Hay [2, 6]: 10.49^b lb/d DM
Feed consumed, Supplement [2, 6]: 4.08^b lb/d DM
Feed consumed, Total [2, 6]: 14.57^ab lb/d DM
Feed efficiency, Gain/TDN [2, 6]: .154^d
Feed efficiency, Gain/feed DM [2, 6]: .091^a
Height change (0-112 days) [2, 6]: 2.79 in.
Liquid supplement refusal: molasses based supplement remaining from last feeding ([2]; Alimet 5.7 g/d, pen 1): 25 pounds
Liquid supplement refusal: molasses based supplement remaining from last feeding ([2]; Alimet 11.4 g/d, pen 8): 35 pounds
Liquid supplement refusal: molasses based supplement remaining from last feeding ([2]; Alimet 17 g/d, pen 5): 15 pounds
Liquid supplement refusal: molasses based supplement remaining from last feeding ([2]; Alimet 22.7 g/d, pen 4, feeding date 2.19): 40 pounds
Liquid supplement refusal: molasses based supplement remaining from last feeding ([2]; Alimet 22.7 g/d, pen 4, feeding date 12.18): 20 pounds
Liquid supplement refusal: molasses based supplement remaining from last feeding ([2]; Alimet 22.7 g/d, pen 4, feeding date 12.22): 25 pounds
Liquid supplement refusal: molasses based supplement remaining from last feeding ([2]; Alimet 22.7 g/d, pen 4, feeding date 12.26): 30 pounds
Liquid supplement refusal: molasses based supplement remaining from last feeding ([2]; Alimet 22.7 g/d, pen 4, feeding date 12.29): 35 pounds
Liquid supplement refusal: molasses based supplement remaining from last feeding ([2]; Alimet 22.7 g/d, pen F, feeding date 1.22): 20 pounds
Liquid supplement refusal: molasses based supplement remaining from last feeding ([2]; Alimet 22.7 g/d, pen F, feeding date 3.01): 35 pounds
BCS change (0-112 days) [2, 3]: +.14
BCS change (0-112 days) [2, 4]: +.09
BCS change (0-112 days) [2, 5]: +.18
BCS change (0-112 days) [2, 6]: +.08
Added gain [2, 3]: .17 lb/d
Added gain [2, 4]: .13 lb/d
Added gain [2, 5]: .26 lb/d
Added gain [2, 6]: .13 lb/d
TDN consumed [2, 3]: 9.21^b lb/d
TDN consumed [2, 4]: 8.84^b lb/d
TDN consumed [2, 5]: 9.13^b lb/d
TDN consumed [2, 6]: 8.56^ab lb/d
